In one assay the target is T1, human SGLT1 (Homo sapiens, UniProt P13866).
T1 construct: expressed in transfected cells
T1 sequence (P13866 1-664): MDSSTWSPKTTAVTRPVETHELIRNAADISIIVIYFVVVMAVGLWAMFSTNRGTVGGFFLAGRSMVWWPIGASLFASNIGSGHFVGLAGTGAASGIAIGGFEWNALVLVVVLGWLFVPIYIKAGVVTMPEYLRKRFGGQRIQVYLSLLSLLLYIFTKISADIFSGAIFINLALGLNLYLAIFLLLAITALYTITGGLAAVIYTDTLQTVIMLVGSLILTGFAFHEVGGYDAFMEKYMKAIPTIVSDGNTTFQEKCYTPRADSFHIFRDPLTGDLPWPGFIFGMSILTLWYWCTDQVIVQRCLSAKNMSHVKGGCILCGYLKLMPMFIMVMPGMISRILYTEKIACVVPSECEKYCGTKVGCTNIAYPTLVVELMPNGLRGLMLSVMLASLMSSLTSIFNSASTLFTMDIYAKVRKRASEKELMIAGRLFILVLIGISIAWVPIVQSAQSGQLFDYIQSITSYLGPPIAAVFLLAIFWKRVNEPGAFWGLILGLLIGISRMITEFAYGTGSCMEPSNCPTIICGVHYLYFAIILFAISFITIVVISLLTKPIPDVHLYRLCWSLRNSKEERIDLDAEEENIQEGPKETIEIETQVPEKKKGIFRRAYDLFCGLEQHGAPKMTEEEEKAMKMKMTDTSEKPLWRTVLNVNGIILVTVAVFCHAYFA
Description: Cell-based assay for sodium-dependent glucose transport (14C-AMG uptake), CHOK-SGLT1. The conditions noted are these: 10 uM compound, CHO-K1 cells stably expressing human SGLT1, Na-dependent 14C-AMG uptake; for inhibition at 10 µM: read-out: CHOK-SGLT1 % Inh (10 uM). The method, then:
(§1) Cloning of the human SGLT1 and human SGLT2 cDNAs and construction of the mammalian expression vector: The human SGLT1 cDNA (Genbank M24847) was cloned from human small intestine. Human SGLT2 cDNA (Genbank M95549) was cloned from human kidney. Both full cDNAs were subcloned into pcDNA and sequenced to verify the integrity of the construct. Generation of CHO-K1 cells stably expressing human SGLT1 or human SGLT2: Transfection of CHO-K1 cells was performed using DMRIE-C reagent (Life Technologies, Gaithersburg, Md.). Transfectants were then selected in the presence of the antibiotic G418 (Gibco-BRL, Grand Island, N.Y.) at 400 μg/ml. Individual clones were then characterized using the functional assay described below. Cell-based assay for sodium-dependent glucose transport: Cell lines stably expressing human SGLT1 or SGLT2 were then used for functional analysis of Na^+-dependent glucose uptake. Briefly, cells were plated at a density of 65,000 cells per well in a 96-well plate and allowed to grow for 48 hours. Cells were subsequently washed one time with Assay Buffer (50 mM HEPES pH 7.4, 20 mM Tris, 5 mM KCl, 1 mM MgCl2, 1 mM CaCl2 and 137 mM NaCl) and treated with compound in the absence or presence of NaCl for 15 minutes. Cells were then labeled with ^14C-α-methylglucopyranoside (AMG, Sigma, St. Louis, Mo.), a non-metabolizable glucose analog specific for sodium-dependent glucose transporters as previously described (Peng, H. and Lever J. E. Post-transcriptional regulation of Na^+/glucose cotransporter (SGLT1) gene expression in LLC-PK1 cells. J Biol Chem 1995; 270:20536-20542.). After 2 hours the labelled cells were washed three times with ice-cold PBS. After aspiration, cells were solubilized using Microscint 20 (Packard, Meriden, Conn.) and Na-dependent ^14C-AMG uptake was quantified by measuring radioactivity. Plates were counted in a TopCount (Packard, Meriden, Conn.). Results are reported as the % inhibition or IC50 value from a representative experiment. Variability for the functional assay was typically within 20%.

The target of a further assay is T2, human SGLT2 (Homo sapiens, UniProt P31639).
T2 construct: expressed in transfected cells
T2 sequence (P31639 1-672): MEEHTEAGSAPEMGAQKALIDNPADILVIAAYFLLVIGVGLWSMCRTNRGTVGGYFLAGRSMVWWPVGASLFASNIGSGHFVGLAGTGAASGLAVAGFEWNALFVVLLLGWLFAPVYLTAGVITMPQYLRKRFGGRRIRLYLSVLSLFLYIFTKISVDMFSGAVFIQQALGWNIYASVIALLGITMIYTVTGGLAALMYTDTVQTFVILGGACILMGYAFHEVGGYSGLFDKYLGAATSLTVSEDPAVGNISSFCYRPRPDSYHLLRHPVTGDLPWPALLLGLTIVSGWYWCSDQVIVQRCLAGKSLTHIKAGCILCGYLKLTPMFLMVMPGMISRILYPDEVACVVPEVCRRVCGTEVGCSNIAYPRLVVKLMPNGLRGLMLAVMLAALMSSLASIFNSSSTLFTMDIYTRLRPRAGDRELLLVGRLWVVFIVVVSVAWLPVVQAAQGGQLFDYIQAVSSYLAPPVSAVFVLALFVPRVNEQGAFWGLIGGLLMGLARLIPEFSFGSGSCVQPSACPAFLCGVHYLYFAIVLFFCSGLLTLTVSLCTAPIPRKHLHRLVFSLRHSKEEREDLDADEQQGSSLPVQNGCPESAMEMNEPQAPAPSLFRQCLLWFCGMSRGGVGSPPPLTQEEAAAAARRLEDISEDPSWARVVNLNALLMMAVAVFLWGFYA
Description: Cell-based assay for sodium-dependent glucose transport (14C-AMG uptake), CHOK-SGLT2. The conditions noted are these: for IC50: CHO-K1 cells stably expressing human SGLT2, Na-dependent 14C-AMG uptake, read-out: CHOK-SGLT2 IC50 (uM) ± SEM; for inhibition at 10 µM: CHO-K1, read-out: CHOK-SGLT2 % Inh. @ 10 μM. The method, then: as §1, with “experiment.” for “experiment. Variability for the functional assay was typically within 20%.”

From patent US7816331B2, “Substituted indazole-O-glucosides” (Janssen Pharmaceutica NV, priority 2003, dated 2010) come the findings set out here.

Molecules are shown by their SMILES.

As usually defined, the IC50 is the concentration that gives 50% inhibition. Take `CCc1cc(O[C@@H]2O[C@H](CO)[C@@H](O)[C@H](O)[C@H]2O)c2c(CCc3ccc4c(c3)CCO4)n[nH]c2c1` [Example 19, 2-{3-[2-(2,3-Dihydro-benzofuran-5-yl)-ethyl]-6-ethyl-1H-indazol-4-yloxy}-D-glucopyranoside]: the “CHOK-SGLT1 % Inh (10 uM)” value at human SGLT1 is “inactive”. For the same compound, the IC50 at human SGLT2 was determined as 0.532 ± 0.047 µM.
For the compound `Cc1cc(OC2OC(CO)C(O)C(O)C2O)c2c(CCc3ccc4c(c3)CCCC4)n[nH]c2c1` [Example 5, 2-{6-Methyl-3-[2-(5,6,7,8-tetrahydro-naphthalen-2-yl)-ethyl]-1H-indazol-4-yloxy}-β-D-glucopyranoside], the “CHOK-SGLT1 % Inh (10 uM)” value at human SGLT1 is “inactive”. On human SGLT2, the IC50 was found to be 3.25 ± 0.461 µM.
With `COc1ccc(SCc2n[nH]c3cccc(OC4OC(CO)C(O)C(O)C4O)c23)cc1` [Example 20, 2-[3-(4-Methoxy-phenylsulfanylmethyl)-1H-indazol-4-yloxy]-β-D-glucopyranoside], the inhibition at 10 µM at human SGLT1 turned out to be 38%; on human SGLT2, 64%.
`Cc1cc(OC2OC(CO)C(O)C(O)C2O)c2c(CCC3CCCCC3)n[nH]c2c1` [Example 17, 2-[3-(2-Cyclohexyl-ethyl)-6-methyl-1H-indazol-4-yloxy]-β-D-glucopyranoside]: the “CHOK-SGLT1 % Inh (10 uM)” value on human SGLT1 is “inactive”. The inhibition at 10 µM on human SGLT2 was 67%.
Regarding `Cc1cc(OC2OC(CO)C(O)C(O)C2O)c2c(CCc3ccc4c(c3)CCO4)nn(C)c2c1` [Example 15, 2-{3-[2-(2,3-Dihydro-benzofuran-5-yl)-ethyl]-1,6-dimethyl-1H-indazol-4-yloxy}-β-D-glucopyranoside], on human SGLT1, the inhibition at 10 µM amounted to 47%. In addition, the IC50 on human SGLT2 was found to be 0.754 ± 0.069 µM.
As for `Cc1cc(O[C@@H]2O[C@H](CO)[C@@H](O)[C@H](O)[C@H]2O)c2c(Cc3ccc4c(c3)CCO4)n[nH]c2c1` [Example 22, 2-[3-(2,3-Dihydro-benzofuran-5-ylmethyl)-6-methyl-1H-indazol-4-yloxy]-β-D-glucopyranoside], at human SGLT1, the “CHOK-SGLT1 % Inh (10 uM)” value was “inactive”. Besides, the inhibition at 10 µM on human SGLT2 turned out to be 40%.
The matching figures for `COc1ccc2c(c1)CCC(CCc1n[nH]c3cc(C)cc(OC4OC(CO)C(O)C(O)C4O)c13)C2` [Example 8, 2-{3-[2-(6-Methoxy-1,2,3,4-tetrahydro-naphthalen-2-yl)-ethyl]-6-methyl-1H-indazol-4-yloxy}-β-D-glucopyranoside]: “inactive” and 67%.
